Assay results from patent US20130287807A1, “COMPOUNDS FOR TREATING SYMPTOMS ASSOCIATED WITH PARKINSON'S DISEASE” (priority 2008, published 2013).
Values belong to the molecule of their own block, whether it stands above or below them. Ends that are not written are not given here.

What was measured:
[1] = test system: irrelevant peptide p1454; test: Mimotope vaccination, serum titer ELISA against irrelevant peptide; format: in vivo, C57/B16 mice; settings: 30 μg peptide-KLH s.c. with alum
Protocol: (§1) Inhibiting as well as non-inhibiting peptides were coupled to KLH and injected into mice (wildtype C57/B16 mice; subcutaneous injection into the flank) together with an appropriate adjuvant (aluminium hydroxide). Animals were vaccinated 3-6 times in biweekly intervals and sera were taken biweekly as well. Titers to injected peptides, as well as to an irrelevant peptide were determined with every serum. Furthermore, titers against the recombinant human Aβ protein, and against original peptides were determined respectively. In general sera were analysed by reaction against peptides coupled to Bovine Serum Albumin (BSA) and recombinant full length proteins which were immobilised on ELISA plates. Titers were determined using anti mouse IgG specific antibodies. For detailed results see FIGS. 15, 16 and 17 respectively and FIGS. 23, 24 and 25 respectively.
(§2) Female C57/b16 mice, 5-6 mice per group, were subcutaneously immunized with 30 μg peptide coupled to KLH. Control groups were administered original epitope-KLH conjugates respectively. As adjuvant alum was used (always 1 mg per mouse). […] The in vitro ELISA assay to determine the antibody titer was performed with sera of single mice after each vaccination in a two week interval (see FIGS. 15 and 16 respectively). The wells of the ELISA plate were coated with mimotope-BSA conjugate and an irrelevant peptide-BSA conjugate (negative control). The positive control was performed by reaction of the parental antibody with the respective mimotope-BSA conjugate. The detection was performed with anti-mouse IgG. Additionally, recombinant proteins were immobilised on ELISA plates and sera reacted accordingly. FIGS. 15 to 17 show representative examples for assays used to characterise mimotopes in vivo.
as §2, with “FIGS. 25” for “FIGS. 15”, “and 26” for “and 16”, “respectively). Titers were calculated as OD max/2 in all figures shown.” for “respectively).”, “FIGS. 23, 24 and 25” for “FIGS. 15 to 17”

[2] = test system: injected peptide (mimotope-BSA conjugate); test: Mimotope vaccination, serum titer ELISA against injected peptide; format: in vivo, C57/B16 mice; settings: 30 μg peptide-KLH s.c. with alum, anti-mouse IgG
Protocol: as §1, §2
as §2, with “FIGS. 25” for “FIGS. 15”, “and 26” for “and 16”, “respectively). Titers were calculated as OD max/2 in all figures shown.” for “respectively).”, “FIGS. 23, 24 and 25” for “FIGS. 15 to 17”

[3] = test system: Aβ/truncated/modified forms; test: In vivo characterisation of mimotopes: detection of Aβ/truncated/modified forms; design: species or system C57/B16 mice; key: +: All peptides listed in table 4 mount specific immune reactions against full length and/or truncated and modified forms of Aβ or fragments thereof; settings: Table 4, MV-002 derived mimotopes
Protocol: as §1, §2
as §2, with “FIGS. 25” for “FIGS. 15”, “and 26” for “and 16”, “respectively). Titers were calculated as OD max/2 in all figures shown.” for “respectively).”, “FIGS. 23, 24 and 25” for “FIGS. 15 to 17”

[4] = test system: p4377; test: Mimotope vaccination, serum ELISA against p4377; format: in vivo, C57/B16 mice; settings: peptide-KLH vaccines with alum; FIG. 24
Protocol: as §1
as §2, with “FIGS. 25” for “FIGS. 15”, “and 26” for “and 16”, “respectively). Titers were calculated as OD max/2 in all figures shown.” for “respectively).”, “FIGS. 23, 24 and 25” for “FIGS. 15 to 17”

[5] = test system: monoclonal antibody MV-002; test: In vitro inhibition assay (ELISA), MV-002 binding to original epitope; design: species or system C57/B16 mice; settings: for inhibition of binding of monoclonal antibody in in vitro competition experiments: MV-002 mimotopes; for Inhibition Capacity: Table 2 (MV-002), OD at 5 ug peptide compared to original peptide
Protocol: (§3) Different amounts of peptides (concentrations ranging from 10 μg to 0.08 μg; serial dilutions; for MV-002: concentrations ranging from 5 μg to 0.03 μg; serial dilutions), derived from Phage Display were incubated with the monoclonal antibody that was used for the screening procedure. Peptides diminishing subsequent binding of the antibody to the original epitope coated on ELISA plates were considered as inhibiting in this assay.
Legend to Table 2: the inhibition capacity is coded by the following code: Weak inhibition means more peptide is required to lower AB binding than with the original epitope; strong inhibition means similar peptide amounts are required for mimotope and original epitope for lowering AB binding. Mimotopes are compared to the original peptide as standard. OD at 5 ug peptide used in the assay is used to calculate the competition capacity compared to original peptide.

[6] = test system: monoclonal antibody MV-002; test: In vitro binding assay (ELISA), BSA-coupled peptides, parental antibody MV-002; design: species or system C57/B16 mice; settings: Table 1 (MV-002); peptide-BSA on plate, compared to original epitope
Outline: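 BSA-conjugated phage-display peptides and variants coated on ELISA plates at 1 μM, then incubated with the monoclonal antibody used for the screen. Binding capacity given as 1:X, the dilution factor of the parental antibody; Ac- marks acetylated amino acids.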

[7] = test system: monoclonal antibody MV-004; test: In vitro binding assay (ELISA), BSA-coupled peptides, parental antibody MV-004; design: species or system BalbC mice; settings: Table 1B; peptide-BSA on plate, compared to original epitope
Protocol: Peptides derived from Phage Display as well as variants thereof were coupled to BSA and bound to ELISA plates (1 μM; as indicated in the respective figures) and subsequently incubated with the monoclonal antibody that was used for the screening procedure to analyse binding capacity of identified peptides.
Legend to Table 1B: the binding capacity is coded by the following binding code: 1:X describes the dilution factor of the parental AB.

[8] = test system: monoclonal antibody MV-004; test: In vitro inhibition assay (ELISA), MV-004 binding to original epitope; design: species or system BalbC mice; settings: Table 2B; OD at 10 ug peptide compared to original peptide
Protocol: as §3
Legend to Table 2B: the inhibition capacity is coded by the following code: Weak inhibition means more peptide is required to lower AB binding than with the original epitope; strong inhibition means similar peptide amounts are required for mimotope and original epitope for lowering AB binding. Mimotopes are compared to the original peptide as standard. OD at 10 ug peptide used in the assay is used to calculate the competition capacity compared to original peptide.

[9] = target: monoclonal antibody MV-001; test: ELISA on peptide-BSA; code 1 = weak binding, OD halfmax 1:<4000
[10] = target: monoclonal antibody MV-002; test: ELISA on peptide-BSA; code 2 = medium binding, OD halfmax 1:40000-320000
[11] = target: monoclonal antibody MV-001; test: inhibition ELISA, competitor coated original epitope p4371; code 1 = weaker than original epitope

inhibition of binding of monoclonal antibody in in vitro competition experiments [5]: active in in vitro inhibition assays
Binding Capacity [6]: 3 (strong binding :>320000)
Molecule: GEIWFEGC [p4680]
immune response against unrelated sequence (p1454) [1]: failed to induce a relevant unspecific immune response
immune response against injected peptide [2]: elicited immune responses
Detection of Aβ/truncated/modified forms [3]: +
immune response against original epitope p4377 [4]: mounted detectable immune responses
Inhibition Capacity [5]: 2 (strong inhibition (as original epitope; OD of peptide below 2, 3 times of original peptide))

Binding Capacity [7]: 2 (medium binding :24-96000)
Molecule: ELWHRYPC [p4420]
Inhibition Capacity [8]: 1 (Weaker than original epitope (OD of 10 ug peptide below 5 times of original peptide))

Binding Capacity [7]: 1 (weak binding :<24000)
Molecule: EVWHRGC [p4788]
Inhibition Capacity [8]: 1 (Weaker than original epitope (OD of 10 ug peptide below 5 times of original peptide))

inhibition of binding of monoclonal antibody in in vitro competition experiments [5]: active in in vitro inhibition assays
Binding Capacity [6]: 3 (strong binding :>320000)
Molecule: GEIYFERC [p4681]
immune response against unrelated sequence (p1454) [1]: failed to induce a relevant unspecific immune response
immune response against injected peptide [2]: elicited immune responses
Detection of Aβ/truncated/modified forms [3]: +
immune response against original epitope p4377 [4]: mounted detectable immune responses
Inhibition Capacity [5]: 2 (strong inhibition (as original epitope; OD of peptide below 2, 3 times of original peptide))

OD halfmax 1:X (dilution factor of the parental antibody at half-maximal OD) (dilutionfactor(1:x)) [9]: < 4000
Molecule: HEPLFSHC [p4719]

OD halfmax dilution factor of the parental antibody (1:X) (dilutionfactor(1:x)) [10]: 40000 to 320000
Molecule: GQIIFQSC [p4668]

OD halfmax 1:X (dilution factor of the parental antibody at half-maximal OD) (dilutionfactor(1:x)) [9]: < 4000
Molecule: TPLMFWHC [p4733]

OD halfmax dilution factor of the parental antibody (1:X) (dilutionfactor(1:x)) [10]: 40000 to 320000
Molecule: HQKMIFC [p4794]

Continued, molecule first:

Molecule: HQKMIFAC [p4675]
immune response against unrelated sequence (p1454) [1]: failed to induce a relevant unspecific immune response
immune response against injected peptide [2]: elicited immune responses
Detection of Aβ/truncated/modified forms [3]: +
immune response against original epitope p4377 [4]: mounted detectable immune responses
inhibition of binding of monoclonal antibody in in vitro competition experiments [5]: active in in vitro inhibition assays
Inhibition Capacity [5]: 2 (strong inhibition (as original epitope; OD of peptide below 2, 3 times of original peptide))
Binding Capacity [6]: 3 (strong binding :>320000)

Molecule: EVHHQKLVFC [p4377, reference compound]
immune response against unrelated sequence (p1454) [1]: failed to induce a relevant unspecific immune response
immune response against injected peptide [2]: elicited immune responses
immune response against original epitope p4377 [4]: mounted detectable immune responses

Molecule: EVWHRHC [p4789]
Binding Capacity [7]: 1 (weak binding :<24000)
Inhibition Capacity [8]: 1 (Weaker than original epitope (OD of 10 ug peptide below 5 times of original peptide))

Molecule: ELWHRAC [p4786]
Binding Capacity [7]: 1 (weak binding :<24000)
Inhibition Capacity [8]: 1 (Weaker than original epitope (OD of 10 ug peptide below 5 times of original peptide))

Molecule: EVWHRHQC [p4417]
Binding Capacity [7]: 2 (medium binding :24-96000)
Inhibition Capacity [8]: 1 (Weaker than original epitope (OD of 10 ug peptide below 5 times of original peptide))

Molecule: ELWHRAFC [p4665]
Binding Capacity [7]: 2 (medium binding :24-96000)
Inhibition Capacity [8]: 2 (strong inhibition (as original epitope; OD of 10 ug peptide below 2 times of original peptide))

Molecule: QELKRYYC [p4724]
OD halfmax 1:X (dilution factor of the parental antibody at half-maximal OD) (dilutionfactor(1:x)) [9]: < 4000

Molecule: GSLFFWPC [p4688]
OD halfmax dilution factor of the parental antibody (1:X) (dilutionfactor(1:x)) [10]: 40000 to 320000

Molecule: QPNLFYHC [p4713]
OD halfmax 1:X (dilution factor of the parental antibody at half-maximal OD) (dilutionfactor(1:x)) [9]: < 4000

Molecule: GELFFEKC [p4795]
OD halfmax dilution factor of the parental antibody (1:X) (dilutionfactor(1:x)) [10]: 40000 to 320000

Molecule: GEIRFELC [p4796]
OD halfmax dilution factor of the parental antibody (1:X) (dilutionfactor(1:x)) [10]: 40000 to 320000

Molecule: TSTEMWHC [p4754]
OD halfmax 1:X (dilution factor of the parental antibody at half-maximal OD) (dilutionfactor(1:x)) [9]: < 4000

Molecule: Ac-GEIYFERC [p4804]
OD halfmax dilution factor of the parental antibody (1:X) (dilutionfactor(1:x)) [10]: 40000 to 320000

Molecule: EDWFFWHC [p4709]
OD halfmax 1:X (dilution factor of the parental antibody at half-maximal OD) (dilutionfactor(1:x)) [9]: < 4000

Molecule: NWFPHPC [p4392]
OD at 10 ug peptide relative to OD of original peptide (inhibition ELISA) [11]: 2 to 3 fold
OD halfmax 1:X (dilution factor of the parental antibody at half-maximal OD) (dilutionfactor(1:x)) [9]: < 4000

Molecule: GTLIFHHC [p4695]
OD halfmax dilution factor of the parental antibody (1:X) (dilutionfactor(1:x)) [10]: 40000 to 320000
